According to publication PMC12351382, “Fibrinography and thrombography (thrombodynamics-4D) in atrial fibrillation assessment of direct oral anticoagulants in geriatrics patients aged 80 years and older receiving direct oral anticoagulant therapy” (Research and Practice in Thrombosis and Haemostasis, 2025):

Tests used:
[1] = Plasma DOAC concentration in ADAGE patients (chromogenic anti-FXa assay for rivaroxaban and apixaban; anti-FIIa Hemoclot assay for dabigatran); format: in vivo, human; conditions: for DOAC concentration, median (IQR): ADAGE patients ≥80 y, reduced dose: rivaroxaban 15 mg once daily, apixaban 2.5 mg twice daily, dabigatran 110 mg twice daily; for DOAC concentration, range: ADAGE patients, reduced dose (regimens as E1)
Source text: (§1) ADAGE is an academic, prospective, observational multicenter study (NCT 02464488; for details, see Foulon-Pinto et al.). We recruited hospitalized patients from the university hospital’s geriatric department (Assistance Publique-Hôpitaux de Paris, Paris, France). […] The DOAC dose regimen was at the discretion of the physician. Exclusion criteria included any acute, unstable comorbid condition or an estimated life expectancy of a few weeks. Sampling (see below) and last DOAC intake times were recorded on a standardized request form. Sampling time points were at the discretion of the physicians over a period of 20 days following inclusion. Time points were classified according to the time elapsed from the last oral intake (T, hours) for patients receiving rivaroxaban. T1 to T4 corresponded to peak time (Tmax), and T20 to T24 corresponded to trough (Tmin). […] Physicians prospectively collected demographic, clinical, and laboratory data (including creatinine clearance [CrCl] calculated with the Cockcroft–Gault formula). The study was approved by the institutionnel Ethics Committee (Comité consultatif de protection des personnes pour la recherche biomédicale–Île-de-France-6–number 15.074bis). All participants gave written informed consent to participate in the study. Only patients for whom remaining plasma aliquots were available were included in the present study.
(§2) Tubes were sent to each centre’s laboratory within 2 hours after sampling and immediately double-centrifuged for 15 minutes at 2000 × g at 15 to 22 °C to obtain platelet-poor plasma. Plasma samples (500 μL aliquots) were stored at −80 °C prior to shipment on dry ice for central analysis (Haematology Laboratory, Hôpital Lariboisière). Plasma samples were thawed for 3 to 5 minutes in a 37 °C water bath just before testing.
Dedicated calibrations and controls were used. The lower limit of quantification was 20 ng/mL for the 3 assays.

fibrin clot formation [2] = experiment: Thrombodynamics-4D fibrinography in plasma samples from ADAGE patients on DOACs; format: in vivo, human
Source text: as §1, §2
(§3) The TD-4D assay was performed centrally using the Thrombodynamics analyzer system (Hemacore, Diapharma) with the TD-4D PLS dedicated kit (Hemacore, Diapharma). The system simultaneously measures spatiotemporal parameters of fibrin clot formation (fibrinography) and TG process (thrombography) in a thin layer of unstirred plasma. Briefly, 120 μL of platelet-poor plasma is added to a microcuvette containing corn trypsin inhibitor to prevent contribution of contact phase activation, then 5 μL of phospholipid solution (manufacturer’s reagent) is added. After incubation for 15 minutes at 37 °C in the Thrombodynamics device, the mixture is transferred to a second microcuvette containing calcium ions, and then immediately transferred to the measurement cuvette. Finally, the activator insert, whose surface is coated with immobilized tissue factor (100 pmol/m^2), is then transferred to the cuvette. The process of fibrin clot formation is recorded in a time-lapse video-microscopy mode using a dark-field light scattering method. Simultaneously, the system monitors TG by fluorimetry, based on the ability of thrombin to cleave a fluorogenic substrate, 7-amino-4-methylcoumarin (AMC) bound to a short amino acid sequence (Arg-Gly-Gly). The rate of AMC formation is proportional to local thrombin concentration. The microcuvette is maintained at 37 °C and is illuminated with red (625 nm) or ultra-violet (365 nm) light emitting diodes. Clot growth is detected with red light scattering, while AMC fluorescence is detected with UV. Scattered red light and fluorescence passing through the macro lens are recorded by a charge-coupled device system. Images under red and blue light are acquired once per minute. The whole analysis lasts 1 hour. The Thrombodynamics software (Hemacore, Diapharma) calculates parameters of spatiotemporal dynamics of fibrin clot formation and TG [40, 46]. […]

thrombin generation [3] = experiment: Thrombodynamics-4D thrombography in plasma samples from ADAGE patients on DOACs; format: in vivo, human; conditions: for ETP (endogenous thrombin potential, ETP_ATG), median (IQR) / ETP (endogenous thrombin potential, ETP_ATG), range / Thrombin peak height (Cmax_ATG), median (IQR) / Thrombin peak height (Cmax_ATG), range / Thrombography Tlag (Lag_ATG), median (IQR) / Thrombography Tlag (Lag_ATG), range / Time to peak (Tmax_ATG), median (IQR) / Time to peak (Tmax_ATG), range: ADAGE patients, reduced dose (regimens as E1)
Source text: as §1, §2, §3

fibrin clot formation [4] = experiment: Thrombodynamics-4D fibrinography in pooled normal plasma (Cryocheck) spiked with DOACs; format: biochemical, human; conditions: 0 to 1000 nM, mainly at low DOAC concentrations
Procedure: (§4) Frozen pooled normal plasma samples (Cryocheck-Cryopep) were spiked with increasing concentrations of DOACs (0-450 ng/mL), as previously described. […] were kindly provided by Bristol Myers Squibb/Pfizer, Bayer Healthcare, and Boehringer Ingelheim, respectively.
The TD-4D assay was performed centrally using the Thrombodynamics analyzer system (Hemacore, Diapharma) with the TD-4D PLS dedicated kit (Hemacore, Diapharma). The system simultaneously measures spatiotemporal parameters of fibrin clot formation (fibrinography) and TG process (thrombography) in a thin layer of unstirred plasma. Briefly, 120 μL of platelet-poor plasma is added to a microcuvette containing corn trypsin inhibitor to prevent contribution of contact phase activation, then 5 μL of phospholipid solution (manufacturer’s reagent) is added. […] The process of fibrin clot formation is recorded in a time-lapse video-microscopy mode using a dark-field light scattering method. […] Clot growth is detected with red light scattering, while AMC fluorescence is detected with UV. Scattered red light and fluorescence passing through the macro lens are recorded by a charge-coupled device system. […]
(§5) The following fibrinography parameters were recorded (see Supplementary Table 1): (i) lag time (Tlag, minutes); (ii) initial rate of clot growth (Vi, μm/min); (iii) rate of clot growth (V, μm/min); (iv) clot size (CS, μm) measured at 30 minutes; (v) clot density (D, arbitrary units); (vi) time to spontaneous clotting (Tsp, minutes). The following thrombography parameters (at the near-activator area) were recorded (see Supplementary Table 1): (i) Tlag (minutes); (ii) time to thrombin peak (minutes); (iii) maximal thrombin concentration (ie, thrombin peak height, Cmax_ATG, AU/L); (iv) endogenous thrombin potential (ETP_ATG, AU⋅min/L); (v) stationary amplitude of moving peak of thrombin (Ast, AU/L); (vi) rate of thrombin peak propagation (μm/min; see Supplementary Videos 1–3).

thrombin generation [5] = experiment: Thrombodynamics-4D thrombography in pooled normal plasma (Cryocheck) spiked with DOACs; format: biochemical, human
Procedure: as §4
as §3, with “minute.” for “minute. The whole analysis lasts 1 hour. The Thrombodynamics software (Hemacore, Diapharma) calculates parameters of spatiotemporal dynamics of fibrin clot formation and TG [40, 46].”
as §5

[6] = all ADAGE patient samples, any time point and dose
[7] = Tmax (peak), ADAGE patients, reduced dose (regimens as E1)
[8] = Tmin (trough), ADAGE patients, reduced dose (regimens as E1)
[9] = all ADAGE patient samples, Spearman
[10] = univariate analysis, Tmax, line marked Halving
[11] = univariate analysis, Tmin, line marked Halving

SMILES: [H]/N=C(/N)c1ccc(NCc2nc3cc(C(=O)N(CCC(=O)O)c4ccccn4)ccc3n2C)cc1 [Dabigatran]
- DOAC concentration, median (IQR) ([1]; Tmax (peak)): 171 (123-280) ng/mL
- DOAC concentration, range ([1]; Tmax (peak)): 79 to 665 ng/mL
- DOAC concentration, median (IQR) ([1]; Tmin (trough)): 39 (20-70) ng/mL
- DOAC concentration, range ([1]; Tmin (trough)): 20 to 106 ng/mL
- DOAC plasma concentration, lower end of range [1, 6]: < 20 ng/mL
- DOAC plasma concentration, upper end of range [1, 6]: 665 ng/mL
- CS (clot size at 30 minutes), median (IQR) (fibrin clot formation [2]; [7]): 1436 (1332-1583) μm
- CS (clot size at 30 minutes), range (fibrin clot formation [2]; [7]): 1273-2125 μm
- D (clot density), median (IQR) (fibrin clot formation [2]; [7]): 28,810 (27,570-29,170) a.u.
- D (clot density), range (fibrin clot formation [2]; [7]): 22,740-29,360 a.u.
- Fibrinography Tlag (lag time), median (IQR) (fibrin clot formation [2]; [7]): 1.3 (1.2-2.0) min
- Fibrinography Tlag (lag time), range (fibrin clot formation [2]; [7]): 1.0 to 3.9 min
- Initial rate of clot growth (Vi), median (IQR) (fibrin clot formation [2]; [7]): 60.9 (57.8-65.6) μm/min
- Initial rate of clot growth (Vi), range (fibrin clot formation [2]; [7]): 54.5-74.4 μm/min
- Time to Tsp (spontaneous clotting), range (fibrin clot formation [2]; [7]): 9.8 to 58.5 min
- CS (clot size at 30 minutes), median (IQR) (fibrin clot formation [2]; [8]): 1707 (1634-1904) μm
- CS (clot size at 30 minutes), range (fibrin clot formation [2]; [8]): 1612-2205 μm
- D (clot density), median (IQR) (fibrin clot formation [2]; [8]): 32,220 (30,160-36,290) a.u.
- D (clot density), range (fibrin clot formation [2]; [8]): 26,190-39,810 a.u.
- Fibrinography Tlag (lag time), median (IQR) (fibrin clot formation [2]; [8]): 1.0 (0.9-1.1) min
- Fibrinography Tlag (lag time), range (fibrin clot formation [2]; [8]): 0.8 to 1.3 min
- Initial rate of clot growth (Vi), median (IQR) (fibrin clot formation [2]; [8]): 70.3 (66.9-75.1) μm/min
- Initial rate of clot growth (Vi), range (fibrin clot formation [2]; [8]): 57.5-79.5 μm/min
- Time to Tsp (spontaneous clotting), median (IQR) (fibrin clot formation [2]; [8]): 13.7 (11.0-22.2) min
- Time to Tsp (spontaneous clotting), range (fibrin clot formation [2]; [8]): 7.4 to 54.6 min
- Change of CS (clot size) with increasing concentrations (fibrin clot formation [2]; all ADAGE patient samples): decreased
- Association of D (clot density) with DOAC concentration (fibrin clot formation [2]; [9]): significantly associated
- Relationship between time to spontaneous clot formation (Tsp) and DOAC levels (fibrin clot formation [2]; [9]): significant association
- Effect of DOAC concentration at Tmax (βC.pic) on fibrinography initial velocity of clot formation (fibrin clot formation [2]; [10]): ≈ 0.01723%
- Effect of DOAC concentration at Tmin (βC.res) on fibrinography initial velocity of clot formation (fibrin clot formation [2]; [11]): ≈ 0.1281%
- ETP (endogenous thrombin potential, ETP_ATG), median (IQR) (thrombin generation [3]; Tmax (peak)): 1036 (724-1501) AU⋅min/L
- ETP (endogenous thrombin potential, ETP_ATG), range (thrombin generation [3]; Tmax (peak)): 80-2078 AU⋅min/L
- Thrombin peak height (Cmax_ATG), median (IQR) (thrombin generation [3]; Tmax (peak)): 193 (98-243) AU/L
- Thrombin peak height (Cmax_ATG), range (thrombin generation [3]; Tmax (peak)): 8-354 AU/L
- Thrombography Tlag (Lag_ATG), median (IQR) (thrombin generation [3]; Tmax (peak)): 0.6 (0.4-0.8) min
- Thrombography Tlag (Lag_ATG), range (thrombin generation [3]; Tmax (peak)): 0.2 to 1.5 min
- Time to peak (Tmax_ATG), median (IQR) (thrombin generation [3]; Tmax (peak)): 2.6 (2.1-3.1) min
- Time to peak (Tmax_ATG), range (thrombin generation [3]; Tmax (peak)): 1.6 to 4.6 min
- ETP (endogenous thrombin potential, ETP_ATG), median (IQR) (thrombin generation [3]; Tmin (trough)): 1741 (1602-2290) AU⋅min/L
- ETP (endogenous thrombin potential, ETP_ATG), range (thrombin generation [3]; Tmin (trough)): 1111-2715 AU⋅min/L
- Thrombin peak height (Cmax_ATG), median (IQR) (thrombin generation [3]; Tmin (trough)): 349 (279-380) AU/L
- Thrombin peak height (Cmax_ATG), range (thrombin generation [3]; Tmin (trough)): 168-499 AU/L
- Thrombography Tlag (Lag_ATG), median (IQR) (thrombin generation [3]; Tmin (trough)): 0.2 (0.1-0.2) min
- Thrombography Tlag (Lag_ATG), range (thrombin generation [3]; Tmin (trough)): 0.1 to 0.5 min
- Time to peak (Tmax_ATG), median (IQR) (thrombin generation [3]; Tmin (trough)): 1.85 (1.6-2.1) min
- Time to peak (Tmax_ATG), range (thrombin generation [3]; Tmin (trough)): 1.6 to 2.1 min
- Change of ETP_ATG with increasing DOAC plasma concentrations (thrombin generation [3]; all ADAGE patient samples): decreased
- Effect of DOAC concentration at Tmax (βC.pic) on thrombography peak height (PH) (thrombin generation [3]; [10]): ≈ 0.4838%
- Effect of DOAC concentration at Tmin (βC.res) on thrombography peak height (PH) (thrombin generation [3]; [11]): ≈ 0.4447%
- Samples in which spontaneous clotting occurred (fibrin clot formation [4]): 33%
- Change of Ast (stationary amplitude of thrombin moving peak) with increasing concentrations (thrombin generation [5]): decreased
- Effect on Cmax_ATG, ETP_ATG and Ast compared with the other DOACs (thrombin generation [5]): more pronounced effect
